Measurements: US10344060B2 (priority 2013, dated 2019)

Assays:
Assay in all cases: cell-based
mNav1.7 = mNav1.7 (Mus musculus, UniProt Q62205); details: for IC50: PatchXpress, tonic block, mouse Nav1.7, read-out: PX mNav1.7 Tonic IC50; for mNav1.7/hNav1.7: ratio of PX tonic IC50, mouse Nav1.7 over human Nav1.7
rNav1.7 = rNav1.7 (Rattus norvegicus, UniProt O08562); details: for IC50: PatchXpress, tonic block, rat Nav1.7, read-out: PX rNav1.7 Tonic IC50; for rNav1.7/hNav1.7: ratio of PX tonic IC50, rat Nav1.7 over human Nav1.7
mouse Nav1.4 = mouse Nav1.4 (Mus musculus, UniProt Q9ER60); details: for IC50: PatchXpress, tonic block, mouse Nav1.4, read-out: PX mNav1.4 Tonic IC50; for mNav1.4/mNav1.7: ratio of PX tonic IC50, mouse Nav1.4 over mouse Nav1.7
Chain of mouse Nav1.4 (Q9ER60 whole entry): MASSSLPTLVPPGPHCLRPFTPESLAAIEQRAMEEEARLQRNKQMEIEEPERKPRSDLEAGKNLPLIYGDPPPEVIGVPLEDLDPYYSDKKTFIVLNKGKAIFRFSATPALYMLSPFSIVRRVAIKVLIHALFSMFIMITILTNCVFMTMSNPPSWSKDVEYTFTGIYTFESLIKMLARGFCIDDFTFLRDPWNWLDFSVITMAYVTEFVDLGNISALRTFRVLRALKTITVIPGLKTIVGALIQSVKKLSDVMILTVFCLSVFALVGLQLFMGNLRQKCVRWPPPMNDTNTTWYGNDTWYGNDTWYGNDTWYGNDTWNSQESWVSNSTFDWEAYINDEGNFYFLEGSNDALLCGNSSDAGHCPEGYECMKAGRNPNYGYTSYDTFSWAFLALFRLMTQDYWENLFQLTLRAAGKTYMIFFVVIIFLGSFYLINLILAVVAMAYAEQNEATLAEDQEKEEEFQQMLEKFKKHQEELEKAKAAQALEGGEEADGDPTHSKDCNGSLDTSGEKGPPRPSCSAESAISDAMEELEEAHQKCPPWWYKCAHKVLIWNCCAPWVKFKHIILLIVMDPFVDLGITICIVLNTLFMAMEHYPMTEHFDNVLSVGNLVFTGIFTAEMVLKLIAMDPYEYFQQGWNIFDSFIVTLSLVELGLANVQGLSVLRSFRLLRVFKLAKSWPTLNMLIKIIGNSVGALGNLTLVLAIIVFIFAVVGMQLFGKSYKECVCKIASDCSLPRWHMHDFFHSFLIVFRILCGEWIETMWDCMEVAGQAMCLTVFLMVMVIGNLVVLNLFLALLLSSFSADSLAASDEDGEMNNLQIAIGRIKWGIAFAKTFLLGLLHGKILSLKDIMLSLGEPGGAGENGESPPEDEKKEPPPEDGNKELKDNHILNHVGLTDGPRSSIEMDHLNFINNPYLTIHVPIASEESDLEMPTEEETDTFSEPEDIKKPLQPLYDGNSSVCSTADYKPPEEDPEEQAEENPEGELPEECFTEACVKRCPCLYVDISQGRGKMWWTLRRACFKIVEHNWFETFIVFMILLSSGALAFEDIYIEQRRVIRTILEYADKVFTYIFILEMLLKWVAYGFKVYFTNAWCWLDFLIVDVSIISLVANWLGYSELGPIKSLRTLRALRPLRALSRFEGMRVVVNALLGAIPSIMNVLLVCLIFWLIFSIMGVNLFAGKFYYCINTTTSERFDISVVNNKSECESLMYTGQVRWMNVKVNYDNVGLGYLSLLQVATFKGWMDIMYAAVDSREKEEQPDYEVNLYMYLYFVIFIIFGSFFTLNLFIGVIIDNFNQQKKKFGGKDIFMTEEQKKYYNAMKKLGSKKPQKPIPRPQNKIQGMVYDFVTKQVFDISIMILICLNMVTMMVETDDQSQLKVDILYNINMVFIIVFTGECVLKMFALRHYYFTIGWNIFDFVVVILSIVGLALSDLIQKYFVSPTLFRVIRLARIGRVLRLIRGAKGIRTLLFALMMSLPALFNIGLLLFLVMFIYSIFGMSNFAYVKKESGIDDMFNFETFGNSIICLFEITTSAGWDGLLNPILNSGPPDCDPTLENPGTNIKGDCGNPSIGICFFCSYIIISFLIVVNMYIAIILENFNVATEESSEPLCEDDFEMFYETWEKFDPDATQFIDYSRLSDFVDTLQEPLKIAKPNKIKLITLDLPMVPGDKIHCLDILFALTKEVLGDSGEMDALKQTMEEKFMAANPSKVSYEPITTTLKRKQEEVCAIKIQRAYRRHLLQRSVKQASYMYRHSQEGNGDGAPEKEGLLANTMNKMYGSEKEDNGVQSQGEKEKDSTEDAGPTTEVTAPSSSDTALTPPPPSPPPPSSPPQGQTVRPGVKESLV

Chain of mNav1.7 (Q62205 whole entry): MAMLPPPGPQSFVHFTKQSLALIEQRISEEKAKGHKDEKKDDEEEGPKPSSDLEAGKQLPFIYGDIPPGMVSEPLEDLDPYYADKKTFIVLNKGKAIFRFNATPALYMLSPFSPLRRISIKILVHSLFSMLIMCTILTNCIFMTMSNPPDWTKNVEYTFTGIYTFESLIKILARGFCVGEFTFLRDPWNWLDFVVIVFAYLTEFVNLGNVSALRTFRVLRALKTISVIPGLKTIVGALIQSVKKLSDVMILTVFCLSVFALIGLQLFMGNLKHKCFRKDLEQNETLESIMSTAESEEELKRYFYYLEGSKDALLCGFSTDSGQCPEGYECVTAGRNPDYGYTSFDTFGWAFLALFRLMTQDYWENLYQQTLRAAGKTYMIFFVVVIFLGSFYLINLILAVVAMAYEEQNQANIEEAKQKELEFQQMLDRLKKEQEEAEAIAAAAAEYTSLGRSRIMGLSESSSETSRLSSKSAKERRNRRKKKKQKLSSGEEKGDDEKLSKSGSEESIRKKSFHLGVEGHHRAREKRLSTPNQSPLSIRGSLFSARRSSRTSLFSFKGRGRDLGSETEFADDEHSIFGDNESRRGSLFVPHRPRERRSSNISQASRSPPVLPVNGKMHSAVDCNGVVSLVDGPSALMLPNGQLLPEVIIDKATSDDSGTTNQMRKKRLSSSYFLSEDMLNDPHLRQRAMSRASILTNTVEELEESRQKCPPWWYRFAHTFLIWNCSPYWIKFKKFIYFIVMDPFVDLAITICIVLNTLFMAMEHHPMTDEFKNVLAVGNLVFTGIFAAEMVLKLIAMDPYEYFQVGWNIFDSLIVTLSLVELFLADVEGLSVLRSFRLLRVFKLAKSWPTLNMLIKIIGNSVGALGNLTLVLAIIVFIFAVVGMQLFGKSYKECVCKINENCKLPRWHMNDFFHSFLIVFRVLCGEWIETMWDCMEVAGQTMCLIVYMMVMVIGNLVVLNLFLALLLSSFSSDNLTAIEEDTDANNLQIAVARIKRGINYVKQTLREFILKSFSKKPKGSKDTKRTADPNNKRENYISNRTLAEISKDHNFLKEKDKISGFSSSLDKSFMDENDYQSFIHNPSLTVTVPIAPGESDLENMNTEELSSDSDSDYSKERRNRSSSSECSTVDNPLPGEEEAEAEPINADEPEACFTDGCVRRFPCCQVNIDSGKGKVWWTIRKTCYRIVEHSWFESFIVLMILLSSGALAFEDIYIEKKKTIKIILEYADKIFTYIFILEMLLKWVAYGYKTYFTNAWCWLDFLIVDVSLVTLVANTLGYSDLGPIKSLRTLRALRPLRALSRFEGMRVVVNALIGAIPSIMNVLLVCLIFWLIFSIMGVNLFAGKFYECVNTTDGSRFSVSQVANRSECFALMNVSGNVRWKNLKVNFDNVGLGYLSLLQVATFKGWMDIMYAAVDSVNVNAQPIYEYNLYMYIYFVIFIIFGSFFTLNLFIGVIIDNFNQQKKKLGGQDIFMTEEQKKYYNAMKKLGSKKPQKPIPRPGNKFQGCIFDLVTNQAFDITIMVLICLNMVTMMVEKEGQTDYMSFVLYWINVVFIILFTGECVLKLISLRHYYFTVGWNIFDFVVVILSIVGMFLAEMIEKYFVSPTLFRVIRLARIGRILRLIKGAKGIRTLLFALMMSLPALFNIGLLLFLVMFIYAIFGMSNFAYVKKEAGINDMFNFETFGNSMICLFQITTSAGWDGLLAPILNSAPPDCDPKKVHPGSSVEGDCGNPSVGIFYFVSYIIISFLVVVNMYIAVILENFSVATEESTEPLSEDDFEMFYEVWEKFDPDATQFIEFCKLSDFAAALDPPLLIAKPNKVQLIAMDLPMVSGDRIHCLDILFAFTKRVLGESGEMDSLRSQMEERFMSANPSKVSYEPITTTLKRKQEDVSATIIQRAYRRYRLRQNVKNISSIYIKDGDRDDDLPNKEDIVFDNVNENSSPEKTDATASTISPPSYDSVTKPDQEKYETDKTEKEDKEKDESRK

Compound	IC50 (mNav1.7)	mNav1.7/hNav1.7 (mNav1.7)	IC50 (rNav1.7)	rNav1.7/hNav1.7 (rNav1.7)	IC50 (mouse Nav1.4)	mNav1.4/mNav1.7 (mouse Nav1.4)
C#CC[C@H](N)C(=O)N[C@@H](Cc1ccc(O)cc1)C(=O)N[C@H]1CSSC[C@@H]2NC(=O)[C@@H]3CSSC[C@@H](C(=O)N[C@@H](CCCNC(=N)N)C(=O)N[C@@H](CCCCN)C(=O)N[C@@H](CCC(=O)O)C(=O)N[C@H](C(N)=O)[C@@H](C)CC)NC(=O)[C@H](Cc4c[nH]c5ccccc45)NC(=O)[C@H](CC(C)C)NC(=O)[C@H](CCCCN)NC(=O)[C@H](CSSC[C@H](NC(=O)[C@H]([C@@H](C)O)NC(=O)[C@H](Cc4c[nH]c5ccccc45)NC(=O)[C@H](CCCC)NC(=O)[C@H](Cc4c[nH]c5ccccc45)NC(=O)[C@H](CCCCN)NC(=O)[C@H](CCC(N)=O)NC1=O)C(=O)N[C@@H](CC(=O)O)C(=O)N[C@@H](CO)C(=O)N[C@@H](CCC(=O)O)C(=O)N[C@@H](CCCNC(=N)N)C(=O)N[C@@H](C)C(=O)N3)NC(=O)[C@H](CCCNC(=N)N)NC(=O)[C@H](CC(C)C)NC(=O)CNC(=O)[C@H](CCCCN)NC2=O [Pra-[Nle6; Glu12, 28; Lys17]JzTx-V(1-29)]	4.4 nM	0.50	2.01 nM	0.23	63 nM	14
C#CC[C@H](N)C(=O)N[C@@H](Cc1ccc(O)cc1)C(=O)N[C@H]1CSSC[C@@H]2NC(=O)[C@@H]3CSSC[C@@H](C(=O)N[C@@H](CCCNC(=N)N)C(=O)N[C@@H](CCCCN)C(=O)N[C@@H](CCC(=O)O)C(=O)N[C@H](C(N)=O)[C@@H](C)CC)NC(=O)[C@H](Cc4c[nH]c5ccccc45)NC(=O)[C@H](CC(C)C)NC(=O)[C@H](CCCCN)NC(=O)[C@H](CSSC[C@H](NC(=O)[C@H]([C@@H](C)O)NC(=O)[C@H](Cc4c[nH]c5ccccc45)NC(=O)[C@H](CCCC)NC(=O)[C@H](Cc4c[nH]c5ccccc45)NC(=O)[C@H](CCCCN)NC(=O)[C@H](CCC(N)=O)NC1=O)C(=O)N[C@@H](CC(=O)O)C(=O)N[C@@H](CO)C(=O)N[C@@H](CCC(=O)O)C(=O)N[C@@H](CCCNC(=N)N)C(=O)N[C@@H](C)C(=O)N3)NC(=O)[C@H](CCCNC(=N)N)NC(=O)[C@H](CC(C)C)NC(=O)CNC(=O)[C@H](CCC(=O)O)NC2=O [Pra-[Nle6; Glu12, 28]JzTx-V(1-29)]	16.2 nM	9.37	2.66 nM	1.54	548 nM	34
C#CC[C@H](N)C(=O)N[C@@H](Cc1ccc(O)cc1)C(=O)N[C@H]1CSSC[C@@H]2NC(=O)[C@@H]3CSSC[C@@H](C(=O)N[C@@H](CCCNC(=N)N)C(=O)N[C@@H](CCCCN)C(=O)N[C@H](C(=O)N[C@H](C(N)=O)[C@@H](C)CC)[C@@H](C)CC)NC(=O)[C@H](Cc4c[nH]c5ccccc45)NC(=O)[C@H](CC(C)C)NC(=O)[C@H](CCCCN)NC(=O)[C@H](CSSC[C@H](NC(=O)[C@H]([C@@H](C)O)NC(=O)[C@H](Cc4c[nH]c5ccccc45)NC(=O)[C@H](CCCC)NC(=O)[C@H](Cc4c[nH]c5ccccc45)NC(=O)[C@H](CCCCN)NC(=O)[C@H](CCC(N)=O)NC1=O)C(=O)N[C@@H](CC(=O)O)C(=O)N[C@@H](CO)C(=O)N[C@@H](CCCCN)C(=O)N[C@@H](CCCNC(=N)N)C(=O)N[C@@H](C)C(=O)N3)NC(=O)[C@H](CCCNC(=N)N)NC(=O)[C@H](CC(C)C)NC(=O)CNC(=O)[C@H](CCC(=O)O)NC2=O [SEQ ID NO: 425, Pra-[Nle6]JzTx-V(1-29)]	0.511 nM	0.43	0.522 nM	0.44	0.18 nM	0.35
C#CC[C@H](N)C(=O)N[C@@H](CCC(=O)O)C(=O)N[C@H]1CSSC[C@@H]2NC(=O)[C@@H]3CSSC[C@@H](C(=O)N[C@@H](CCCNC(=N)N)C(=O)N[C@@H](CCCCN)C(=O)N[C@@H](CCC(=O)O)C(=O)N[C@H](C(N)=O)[C@@H](C)CC)NC(=O)[C@H](Cc4c[nH]c5ccccc45)NC(=O)[C@H](CC(C)C)NC(=O)[C@H](CCCCN)NC(=O)[C@H](CSSC[C@H](NC(=O)[C@H]([C@@H](C)O)NC(=O)[C@H](Cc4c[nH]c5ccccc45)NC(=O)[C@H](CCCC)NC(=O)[C@H](Cc4c[nH]c5ccccc45)NC(=O)[C@H](CCCCN)NC(=O)[C@H](CCC(N)=O)NC1=O)C(=O)N[C@@H](CC(=O)O)C(=O)N[C@@H](CO)C(=O)N[C@@H](CCCCN)C(=O)N[C@@H](CCCNC(=N)N)C(=O)N[C@@H](C)C(=O)N3)NC(=O)[C@H](CCCNC(=N)N)NC(=O)[C@H](CC(C)C)NC(=O)CNC(=O)[C@H](CCC(=O)O)NC2=O [Pra-[Glu1, 28; Nle6]JzTx-V(1-29)]	9.48 nM	8.41	1.38 nM	1.22	259 nM	27
C#CC[C@H](N)C(=O)N[C@@H](Cc1ccc(O)cc1)C(=O)N[C@H]1CSSC[C@@H]2NC(=O)[C@@H]3CSSC[C@@H](C(=O)N[C@@H](CCCNC(=N)N)C(=O)N[C@@H](CCCCN)C(=O)N[C@@H](CCC(=O)O)C(=O)N[C@H](C(N)=O)[C@@H](C)CC)NC(=O)[C@H](Cc4c[nH]c5ccccc45)NC(=O)[C@H](CC(C)C)NC(=O)[C@H](CCCCN)NC(=O)[C@H](CSSC[C@H](NC(=O)[C@H]([C@@H](C)O)NC(=O)[C@H](Cc4c[nH]c5ccccc45)NC(=O)[C@H](CCCC)NC(=O)[C@H](Cc4c[nH]c5ccccc45)NC(=O)[C@H](CCCCN)NC(=O)[C@H](CCC(N)=O)NC1=O)C(=O)N[C@@H](CC(=O)O)C(=O)N[C@@H](CCC(=O)O)C(=O)N[C@@H](CCCCN)C(=O)N[C@@H](CCCNC(=N)N)C(=O)N[C@@H](C)C(=O)N3)NC(=O)[C@H](CCCNC(=N)N)NC(=O)[C@H](CC(C)C)NC(=O)CNC(=O)[C@H](CCC(=O)O)NC2=O [Pra-[Nle6; Glu11, 28]JzTx-V(1-29)]		10.57		0.95		34
C#CC[C@H](N)C(=O)N[C@@H](Cc1ccc(O)cc1)C(=O)N[C@H]1CSSC[C@@H]2NC(=O)[C@@H]3CSSC[C@@H](C(=O)N[C@@H](CCCNC(=N)N)C(=O)N[C@@H](CCCCN)C(=O)N[C@H](C(=O)N[C@H](C(N)=O)[C@@H](C)CC)[C@@H](C)CC)NC(=O)[C@H](Cc4c[nH]c5ccccc45)NC(=O)[C@H](CC(C)C)NC(=O)[C@H](CCCCN)NC(=O)[C@H](CSSC[C@H](NC(=O)[C@H]([C@@H](C)O)NC(=O)[C@H](Cc4c[nH]c5ccccc45)NC(=O)[C@H](CCCC)NC(=O)[C@H](Cc4c[nH]c5ccccc45)NC(=O)[C@H](CCCCN)NC(=O)[C@H](CCC(N)=O)NC1=O)C(=O)N[C@@H](CC(=O)O)C(=O)N[C@@H](CO)C(=O)N[C@@H](CCC(=O)O)C(=O)N[C@@H](CCCNC(=N)N)C(=O)N[C@@H](C)C(=O)N3)NC(=O)[C@H](CCCNC(=N)N)NC(=O)[C@H](CC(C)C)NC(=O)CNC(=O)[C@H](CCC(=O)O)NC2=O [Pra-[Nle6; Glu12]JzTx-V(1-29)]	0.61 nM	0.51	0.58 nM	0.49	6.36 nM	10
C#CC[C@H](N)C(=O)N[C@@H](Cc1ccc(O)cc1)C(=O)N[C@H]1CSSC[C@@H]2NC(=O)[C@@H]3CSSC[C@@H](C(=O)N[C@@H](CCCNC(=N)N)C(=O)N[C@@H](CCCCN)C(=O)N[C@@H](CCC(=O)O)C(=O)N[C@H](C(N)=O)[C@@H](C)CC)NC(=O)[C@H](Cc4c[nH]c5ccccc45)NC(=O)[C@H](CC(C)C)NC(=O)[C@H](CCCCN)NC(=O)[C@H](CSSC[C@H](NC(=O)[C@H]([C@@H](C)O)NC(=O)[C@H](Cc4c[nH]c5ccccc45)NC(=O)[C@H](CCCC)NC(=O)[C@H](Cc4c[nH]c5ccccc45)NC(=O)[C@H](CCCCN)NC(=O)[C@H](CCC(N)=O)NC1=O)C(=O)N[C@@H](CC(=O)O)C(=O)N[C@@H](CO)C(=O)N[C@@H](CCCCN)C(=O)N[C@@H](CCCNC(=N)N)C(=O)N[C@@H](C)C(=O)N3)NC(=O)[C@H](CCCNC(=N)N)NC(=O)[C@H](CC(C)C)NC(=O)CNC(=O)[C@H](CCC(=O)O)NC2=O [Pra-[Nle6, Glu28]JzTx-V(1-29)]	9.86 nM	17.99	0.641 nM	1.17	119 nM	12
C#CC[C@H](N)C(=O)NCCCC[C@@H]1NC(=O)[C@H](CCCNC(=N)N)NC(=O)[C@H](CCCCN)NC(=O)[C@H](CO)NC(=O)[C@H](CC(=O)O)NC(=O)[C@@H]2CSSC[C@@H]3NC(=O)[C@H](CCCNC(=N)N)NC(=O)[C@H](CC(C)C)NC(=O)CNC(=O)[C@H](CCC(=O)O)NC(=O)[C@H](CSSC[C@H](NC(=O)[C@H](Cc4ccc(O)cc4)NC(=O)[C@@H](N)CC#N)C(=O)N[C@@H](CCC(N)=O)C(=O)N[C@@H](CCCCN)C(=O)N[C@@H](Cc4c[nH]c5ccccc45)C(=O)N[C@@H](CCCC)C(=O)N[C@@H](Cc4c[nH]c5ccccc45)C(=O)N[C@@H]([C@@H](C)O)C(=O)N2)NC(=O)[C@H](CSSC[C@@H](C(=O)N[C@@H](CCCNC(=N)N)C(=O)N[C@@H](CCCCN)C(=O)N[C@@H](CCC(=O)O)C(=O)N[C@H](C(N)=O)[C@@H](C)CC)NC(=O)[C@H](Cc2c[nH]c4ccccc24)NC(=O)[C@H](CC(C)C)NC(=O)[C@H](CCCCN)NC3=O)NC1=O	9.79 nM	6.15	2.73 nM	1.71	62.7 nM	6.4
